Measured values as given in PubChem BioAssay (NCI).
“And” between values parts separate entries of the source, which are not always exact repeats. Identical values can stand only once.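 Tested at 5 concentrations; 48 h exposure; 96-well plates; endpoints linearly interpolated, else capped at highest concentration. GI50 marks 50% less growth. Definition used: TGI = concentration required for complete inhibition of growth.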

Experiments:
Assay in all cases: DTP human tumour cell line panel, 48 h
[1] = test system: SK-MEL-2 melanoma
[2] = test system: U251 CNS
[3] = test system: KM12 colon
[4] = test system: CCRF-CEM leukemia
[5] = test system: SF-539 CNS
[6] = test system: MALME-3M melanoma
[7] = test system: OVCAR-5 ovarian
[8] = test system: NCI/ADR-RES ovarian
[9] = test system: MOLT-4 leukemia
[10] = test system: PC-3 prostate
[11] = test system: LOX IMVI melanoma
[12] = test system: SR leukemia
[13] = test system: M14 melanoma
[14] = test system: SF-268 CNS
[15] = test system: NCI-H23 lung
[16] = test system: HCT-116 colon
[17] = test system: COLO 205 colon
[18] = test system: HL-60(TB) leukemia
[19] = test system: HOP-62 NSCLC
[20] = test system: SF-295 CNS
[21] = test system: SN12C renal
[22] = test system: A549 NSCLC
[23] = test system: ACHN renal
[24] = test system: A498 renal
[25] = test system: UACC-257 melanoma
[26] = test system: OVCAR-4 ovarian
[27] = test system: HOP-92 NSCLC
[28] = test system: MCF7 breast
[29] = test system: SK-OV-3 ovarian
[30] = test system: SNB-19 CNS
[31] = test system: NCI-H522 lung
[32] = test system: MDA-MB-231 breast
[33] = test system: HCC-2998 colon
[34] = test system: T-47D breast
[35] = test system: MDA-MB-435
[36] = test system: CAKI-1 renal
[37] = test system: SK-MEL-28 melanoma
[38] = test system: DU-145 prostate
[39] = test system: SW-620 colon
[40] = test system: RPMI-8226 leukemia
[41] = test system: RXF 393 renal
[42] = test system: HT29 colon
[43] = test system: TK-10 renal
[44] = test system: UO-31 renal
[45] = test system: SK-MEL-5 melanoma
[46] = test system: OVCAR-8 ovarian
[47] = test system: IGROV1 ovarian
[48] = test system: EKVX NSCLC
[49] = test system: HS 578T breast
[50] = test system: OVCAR-3 ovarian
[51] = test system: SNB-75 CNS
[52] = test system: NCI-H226 lung
[53] = test system: UACC-62 melanoma
[54] = test system: BT-549 breast
[55] = test system: MDA-N
[56] = test system: K-562 leukemia
[57] = test system: 786-0 renal
[58] = test system: NCI-H460 lung
[59] = test system: HCT-15 colon

With `C=CCN(/C=C1\C(=O)O[C@H](COC)[C@@]2(C)C1=C(O)C(=O)C1=C2[C@H](OC(C)=O)C[C@]2(C)C(=O)CC[C@@H]12)CC=C` the GI50 [1] was 3.67 µM and 1.48 µM, the TGI [1] was 20 µM and 8.33 µM and the GI50 [2] was 1.6 µM and 3.35 µM. For the same molecule, the TGI [2] was 20 µM and > 100 µM, the GI50 [3] was 0.979 µM and 2.19 µM and the TGI [3] was 20 µM and 46.4 µM. The GI50 [4] was 11.1 µM and 1.41 µM, the TGI [4] was 20 µM and > 100 µM and the GI50 [5] was 3.6 µM and 0.524 µM. The TGI [5] was 20 µM and 6.41 µM, the TGI [6] was 5.5 µM and 8.3 µM and the GI50 [7] was 2.34 µM and 0.737 µM. The TGI [7] was 20 µM and 76.4 µM, the GI50 [8] was 5.76 µM and 2.34 µM and the TGI [8] was 20 µM and > 100 µM. For the same molecule, the GI50 [9] was 1.58 µM and 0.813 µM, the TGI [9] was 20 µM and 17.1 µM and the TGI [10] was over 100 µM. The GI50 [11] was 0.547 µM and 1.89 µM, the TGI [11] was 20 µM and 21.4 µM and the GI50 [12] was 0.86 µM and 0.644 µM. For the same molecule, the TGI [12] was 20 µM and 8.02 µM, the GI50 [13] was 2.98 µM and the TGI [13] was over 100 µM. The GI50 [14] was 0.992 µM and 1.46 µM, the TGI [14] was 20 µM and > 100 µM and the GI50 [15] was 8.94 µM and 2.69 µM. The TGI [15] was 20 µM and > 100 µM, the GI50 [16] was 3.91 µM and 1.76 µM and the TGI [16] was 20 µM and > 100 µM. For the same molecule, the GI50 [17] was 5.04 µM and 1.94 µM, the TGI [17] was 20 µM and 26.3 µM and the GI50 [18] was 0.21 µM and 0.439 µM. For the same molecule, the TGI [18] was 7.46 µM and 11.2 µM, the TGI [19] was 20 µM and 71.3 µM and the GI50 [20] was 0.0935 µM and 0.205 µM. For the same molecule, the TGI [20] was 4.82 µM and 9.89 µM, the GI50 [21] was 1.99 µM and 1.07 µM and the TGI [21] was 20 µM and > 100 µM. The GI50 [22] was 0.151 µM and 0.361 µM, the GI50 [23] was 2.74 µM and 0.449 µM and the TGI [23] was 20 µM and > 100 µM. For the same molecule, the GI50 [24] was 0.0671 µM and 0.049 µM, the TGI [24] was 2.73 µM and 1.26 µM and the GI50 [25] was 9.18 µM and 2.26 µM. The TGI [25] was 20 µM and > 100 µM, the GI50 [26] was 2.97 µM and 2.58 µM and the TGI [26] was 20 µM and > 100 µM. For the same molecule, the TGI [27] was 20 µM and 4.4 µM, the GI50 [28] was 0.186 µM and 0.257 µM and the TGI [28] was 5.95 µM and 22.8 µM. The GI50 [29] was 3.38 µM and 0.596 µM, the TGI [29] was 20 µM and 19.8 µM and the GI50 [30] was 5.92 µM and 1.1 µM. For the same molecule, the TGI [30] was 20 µM and 92.9 µM, the GI50 [31] was 6.46 µM and 2.87 µM and the TGI [31] was 20 µM and 22.2 µM. For the same molecule, the GI50 [32] was 13.2 µM and 3.32 µM, the TGI [32] was 20 µM and > 100 µM and the GI50 [33] was 0.487 µM and 0.207 µM. The TGI [33] was 8.12 µM and 4.94 µM, the TGI [34] was 20 µM and > 100 µM and the GI50 [35] was 1.29 µM and 3.63 µM. For the same molecule, the TGI [35] was 13.5 µM and 46.9 µM, the GI50 [36] was 0.188 µM and 0.2 µM and the TGI [36] was 20 µM and 10.1 µM. The GI50 [37] was 0.838 µM, the TGI [37] was 49.1 µM and the GI50 [38] was 11.2 µM and 1.27 µM. The TGI [38] was 20 µM and > 100 µM, the GI50 [39] was 6.16 µM and 2.09 µM and the TGI [39] was 20 µM and > 100 µM. For the same molecule, the GI50 [40] was 7.91 µM and 1.42 µM, the TGI [40] was 20 µM and 14.1 µM and the GI50 [41] was 0.00922 µM and 0.0149 µM. For the same molecule, the TGI [41] was 0.261 µM and 0.196 µM, the GI50 [42] was 0.101 µM and 0.558 µM and the TGI [42] was 20 µM and > 100 µM. For the same molecule, the GI50 [43] was 0.128 µM and 0.437 µM, the GI50 [44] was 1.51 µM and 0.331 µM and the TGI [44] was 20 µM and > 100 µM. For the same molecule, the GI50 [45] was 3.22 µM and 2.18 µM, the TGI [45] was 20 µM and 11.6 µM and the GI50 [46] was 10.2 µM and 3.09 µM. For the same molecule, the TGI [46] was 20 µM and > 100 µM, the GI50 [47] was 0.145 µM and 0.206 µM and the GI50 [48] was 0.474 µM and 0.0779 µM. For the same molecule, the TGI [48] was 10.4 µM and 1.67 µM, the GI50 [49] was 0.173 µM and 0.025 µM and the TGI [50] was 20 µM and 4.16 µM. For the same molecule, the GI50 [51] was 0.291 µM and 0.0327 µM, the GI50 [52] was 0.364 µM and 1.16 µM and the GI50 [53] was 0.11 µM and 0.075 µM. For the same molecule, the TGI [53] was 1.38 µM and 2.38 µM, the TGI [54] was 20 µM and 3.68 µM and the GI50 [55] was 5.91 µM. The TGI [55] was 20 µM, the GI50 [56] was 15.1 µM and 12 µM and the TGI [56] was 20 µM and > 100 µM. For the same molecule, the TGI [57] was 20 µM and 25.7 µM, the GI50 [58] was 0.278 µM and 0.374 µM and the TGI [58] was 20 µM and > 100 µM. For the same molecule, the GI50 [59] was 2.62 µM and 0.787 µM and the TGI [59] was 20 µM and > 100 µM.
